Like-named read-outs stand apart in the source and are kept apart here.
How the values were obtained:
human 5-HT2C-INI = target: T1, human 5-HT2C-INI (Homo sapiens, UniProt P28335); experiment: Calcium flux (FLIPR) assay, human 5-HT2C-INI stably expressed in HEK-293 (Flp-In-293) cells; conditions: human 5-HT2C-INI in HEK-293 cells, FLIPR; for EC50: NA = no activity at 10 μM; for Emax, % 5-HT 5-HT2C: normalized to 5-HT
T1 sequence (P28335 33-458): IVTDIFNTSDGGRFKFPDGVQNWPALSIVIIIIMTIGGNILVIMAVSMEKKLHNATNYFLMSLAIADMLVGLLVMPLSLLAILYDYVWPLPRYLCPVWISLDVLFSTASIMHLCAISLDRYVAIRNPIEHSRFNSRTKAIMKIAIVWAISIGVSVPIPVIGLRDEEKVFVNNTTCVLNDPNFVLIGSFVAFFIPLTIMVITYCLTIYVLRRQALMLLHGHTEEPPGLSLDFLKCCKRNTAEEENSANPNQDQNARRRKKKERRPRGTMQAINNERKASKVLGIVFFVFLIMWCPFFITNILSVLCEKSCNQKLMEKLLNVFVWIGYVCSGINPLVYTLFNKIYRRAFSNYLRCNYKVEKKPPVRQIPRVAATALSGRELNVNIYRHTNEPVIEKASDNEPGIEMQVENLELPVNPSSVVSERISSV

5-HT2A = 5-HT2A (Homo sapiens, UniProt P28223); experiment: Calcium flux (FLIPR) assay, human 5-HT2A stably expressed in HEK-293 (Flp-In-293) cells; conditions: human 5-HT2A in HEK-293 cells, FLIPR; for EC50: NA = no activity at 10 μM; for Emax, % 5-HT 5-HT2A: normalized to 5-HT
5-HT2B = 5-HT2B (Homo sapiens, UniProt P41595); experiment: Calcium flux (FLIPR) assay, human 5-HT2B stably expressed in HEK-293 (Flp-In-293) cells; conditions: for Emax, % 5-HT 5-HT2B: normalized to 5-HT
[1] = EC50, nM 5-HT2B, human 5-HT2B in HEK-293 cells, NA = no activity at 10 μM

5-HT2A, sequence (P28223 whole entry): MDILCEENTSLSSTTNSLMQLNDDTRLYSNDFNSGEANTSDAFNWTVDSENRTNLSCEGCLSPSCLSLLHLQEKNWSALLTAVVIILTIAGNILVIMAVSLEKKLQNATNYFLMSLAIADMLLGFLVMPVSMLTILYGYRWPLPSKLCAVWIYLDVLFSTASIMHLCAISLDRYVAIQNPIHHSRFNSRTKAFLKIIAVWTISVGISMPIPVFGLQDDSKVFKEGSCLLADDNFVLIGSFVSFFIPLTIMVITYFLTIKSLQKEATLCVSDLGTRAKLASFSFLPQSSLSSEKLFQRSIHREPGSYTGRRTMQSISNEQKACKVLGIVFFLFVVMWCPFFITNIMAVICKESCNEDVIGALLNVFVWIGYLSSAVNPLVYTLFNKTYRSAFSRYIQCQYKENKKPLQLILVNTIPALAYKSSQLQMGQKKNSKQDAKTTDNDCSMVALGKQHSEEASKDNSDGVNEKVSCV
5-HT2B, sequence (P41595 whole entry): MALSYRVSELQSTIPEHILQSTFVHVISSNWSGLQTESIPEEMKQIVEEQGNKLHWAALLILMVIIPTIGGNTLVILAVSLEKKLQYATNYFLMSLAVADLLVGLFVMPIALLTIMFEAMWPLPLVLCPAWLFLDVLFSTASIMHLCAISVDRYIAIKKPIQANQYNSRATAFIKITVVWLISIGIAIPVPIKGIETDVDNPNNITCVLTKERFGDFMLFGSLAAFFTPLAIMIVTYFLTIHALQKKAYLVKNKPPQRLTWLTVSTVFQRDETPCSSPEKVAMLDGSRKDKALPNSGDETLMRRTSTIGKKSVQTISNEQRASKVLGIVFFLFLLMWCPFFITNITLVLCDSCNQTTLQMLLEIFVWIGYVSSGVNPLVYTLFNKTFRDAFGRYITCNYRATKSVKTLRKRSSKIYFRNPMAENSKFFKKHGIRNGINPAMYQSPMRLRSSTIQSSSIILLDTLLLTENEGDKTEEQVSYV

SMILES	EC50 (human 5-HT2C-INI; EC50, nM 5-HT2C)	Emax, % 5-HT 5-HT2C (human 5-HT2C-INI)	EC50 (5-HT2A; EC50, nM 5-HT2A)	Emax, % 5-HT 5-HT2A (5-HT2A)	EC50 (5-HT2B; [1])	Emax, % 5-HT 5-HT2B (5-HT2B; human 5-HT2B in HEK-293 cells)	EC50 (human 5-HT2C-INI; read-out: EC50, nM 5-HT2C)	EC50 (5-HT2A; read-out: EC50, nM 5-HT2A)	EC50 (5-HT2B; read-out: EC50, nM 5-HT2B, human 5-HT2B in HEK-293 cells, NA = no activity at 10 μM)
CCOc1cc(F)c(F)cc1C1CC1CN (single isomer, unassigned; (-)) [(−)-Example 41, (−)-(2-(2-Ethoxy-4,5-difluorophenyl)cyclopropyl)methanamine]	33 nM	(103%) % 5-HT	778 nM	(52%) % 5-HT	299 nM	(35%) % 5-HT	–	–	–
C=C(F)COc1ccc(F)cc1C1CC1CN (single isomer, unassigned; (+)) [(+)-Example 9, (+)-(2-(5-Fluoro-2-((2-fluoroallyl)oxy)phenyl)cyclopropyl)methanamine]	22 nM	(91%) % 5-HT	1670 nM	(17%) % 5-HT	–	–	–	–	–
COc1ccc(F)c(Cl)c1C1CC1CN (single isomer, unassigned; (+)) [(+)-Example 50, (+)-(2-(2-Chloro-3-fluoro-6-methoxyphenyl)cyclopropyl)methanamine]	–	(88%) % 5-HT	–	(77%) % 5-HT	–	(60%) % 5-HT	24 nM	769 nM	–
COc1cc(F)c(Cl)cc1[C@@H]1C[C@H]1CN (single isomer, unassigned) [(−)-Example 1, (−)-(2-(5-Chloro-4-fluoro-2-methoxyphenyl)cyclopropyl)methanamine]	16 nM	(99%) % 5-HT	235 nM	(88%) % 5-HT	329 nM	(44%) % 5-HT	–	–	–
NCC1CC1c1cc(Cl)ccc1OCC(F)F (single isomer, unassigned; (-)) [(−)-Example 21, (−)-(2-(5-Chloro-2-(2,2-difluoroethoxy)phenyl)cyclopropyl)methanamine]	914 nM	(64%) % 5-HT	1300 nM	(43%) % 5-HT	1480 nM	(30%) % 5-HT	–	–	–
COc1cc(Cl)c(Cl)cc1C1CC1CN (single isomer, unassigned; (+)) [(+)-Example 33, (+)-(2-(4,5-Dichloro-2-methoxyphenyl)cyclopropyl)methanamine]	–	(95%) % 5-HT	–	(85%) % 5-HT	–	–	9.7 nM	21 nM	31 nM
COc1ccc(F)c(Cl)c1C1CC1CN (single isomer, unassigned; (-)) [(−)-Example 50, (−)-(2-(2-Chloro-3-fluoro-6-methoxyphenyl)cyclopropyl)methanamine]	–	(96%) % 5-HT	–	(72%) % 5-HT	–	–	3.2 nM	119 nM	–
NCC1CC1c1cc(Cl)c(F)cc1OCCF (single isomer, unassigned; (+)) [(+)-Example 4, (+)-(2-(5-Chloro-4-fluoro-2-(2-fluoroethoxy)phenyl)cyclopropyl)methanamine]	24 nM	(87%) % 5-HT	–	–	506 nM	(39%) % 5-HT	–	–	–
C=CCOc1cc(F)c(Cl)cc1C1CC1CN (single isomer, unassigned; (+)) [(+)-Example 5, (+)-(2-(2-(Allyloxy)-5-chloro-4-fluorophenyl)cyclopropyl)methanamine]	42 nM	(87%) % 5-HT	–	–	1000 nM	(44%) % 5-HT	–	–	–
NCC1CC1c1cc(F)ccc1OCCF (single isomer, unassigned; (-)) [(−)-Example 10, (−)-(2-(5-Fluoro-2-(2-fluoroethoxy)phenyl)cyclopropyl)methanamine]	514 nM	(77%) % 5-HT	2990 nM	(20%) % 5-HT	–	–	–	–	–
CCCOc1ccc(F)cc1C1CC1CN (single isomer, unassigned; (-)) [(−)-Example 7, (−)-(2-(5-Fluoro-2-propoxyphenyl)cyclopropyl)methanamine]	296 nM	(80%) % 5-HT	–	–	735 nM	(11%) % 5-HT	–	–	–
C=CCOc1ccc(Cl)cc1C1CC1CN (single isomer, unassigned; (-)) [(−)-Example 23, (−)-(2-(2-(Allyloxy)-5-chlorophenyl)cyclopropyl)methanamine]	737 nM	(42%) % 5-HT	–	–	4300 nM	(28%) % 5-HT	–	–	–
C=CCOc1ccc(F)cc1C1CC1CN (single isomer, unassigned; (-)) [(−)-Example 8, (−)-(2-(2-(Allyloxy)-5-fluorophenyl)cyclopropyl)methanamine]	157 nM	(87%) % 5-HT	697 nM	(56%) % 5-HT	–	–	–	–	–
NCC1CC1c1cc(Cl)ccc1OCCF (single isomer, unassigned; (-)) [(−)-Example 19, (−)-(2-(5-Chloro-2-(2-fluoroethoxy)phenyl)cyclopropyl)methanamine]	1130 nM	(59%) % 5-HT	–	–	4520 nM	(31%) % 5-HT	–	–	–
CCOc1cc(F)c(Cl)cc1C1CC1CN (single isomer, unassigned; (-)) [(−)-Example 2, (−)-(2-(5-Chloro-2-ethoxy-4-fluorophenyl)cyclopropyl)methanamine]	118 nM	(92%) % 5-HT	1240 nM	(18%) % 5-HT	–	–	–	–	–
C#CCOc1cc(F)c(Cl)cc1C1CC1CN (single isomer, unassigned; (-)) [(−)-Example 6, (−)-(2-(5-Chloro-4-fluoro-2-(prop-2-yn-1-yloxy)phenyl)cyclopropyl)methanamine]	117 nM	(92%) % 5-HT	–	–	4210 nM	(33%) % 5-HT	–	–	–
NCC1CC1c1cc(Cl)ccc1OCCCF (single isomer, unassigned; (-)) [(−)-Example 20, (−)-(2-(5-Chloro-2-(3-fluoropropoxy)phenyl)cyclopropyl)methanamine]	1260 nM	(24%) % 5-HT	–	–	6170 nM	(22%) % 5-HT	–	–	–
NCC1CC1c1c(OCCF)ccc(Cl)c1F (single isomer, unassigned; (+)) [(+)-Example 31, (+)-(2-(3-Chloro-2-fluoro-6-(2-fluoroethoxy)phenyl)cyclopropyl)methanamine]	71 nM	(86%) % 5-HT	–	–	–	(15%) % 5-HT	–	–	–
C=CCOc1ccc(Cl)cc1C1CC1CN (single isomer, unassigned; (+)) [(+)-Example 23, (+)-(2-(2-(Allyloxy)-5-chlorophenyl)cyclopropyl)methanamine]	60 nM	(80%) % 5-HT	–	–	2210 nM	(32%) % 5-HT	–	–	–
C#CCOc1ccc(Cl)cc1C1CC1CN (single isomer, unassigned; (-)) [(−)-Example 26, (−)-(2-(5-Chloro-2-(prop-2-yn-1-yloxy)phenyl)cyclopropyl)methanamine]	365 nM	(71%) % 5-HT	–	–	4410 nM	(30%) % 5-HT	–	–	–
C=CCOc1cc(Cl)c(Cl)cc1C1CC1CN (single isomer, unassigned; (-)) [(−)-Example 35, (−)-(2-(2-(Allyloxy)-4,5-dichlorophenyl)cyclopropyl)methanamine]	278 nM	(84%) % 5-HT	–	–	–	(14%) % 5-HT	–	–	–
C=CCOc1ccc(F)c(Cl)c1C1CC1CN (single isomer, unassigned; (-)) [(−)-Example 53, (−)-(2-(6-(Allyloxy)-2-chloro-3-fluorophenyl)cyclopropyl)methanamine]	101 nM	(89%) % 5-HT	–	–	–	(57%) % 5-HT	–	–	–
NCC1CC1c1c(OCCF)ccc(Cl)c1F (single isomer, unassigned; (-)) [(−)-Example 31, (−)-(2-(3-Chloro-2-fluoro-6-(2-fluoroethoxy)phenyl)cyclopropyl)methanamine]	386 nM	(80%) % 5-HT	–	–	–	(0%) % 5-HT	–	–	–
CC(C)Oc1ccc(Cl)cc1C1CC1CN (single isomer, unassigned; (-)) [(−)-Example 14, (−)-(2-(5-Chloro-2-isopropoxyphenyl)cyclopropyl)methanamine]	2480 nM	(37%) % 5-HT	–	–	5660 nM	(19%) % 5-HT	–	–	–

— patent US10407381B2 (THE BOARD OF TRUSTEES OF THE UNIVERSITY OF ILLINOIS, priority 2015, dated 2019)
